Patent US20110144125A1, “Anti-Arrhythmia Agents, Methods of Their Use, Methods of Their Identification and Kits Therefore” (THE UAB RESEARCH FOUNDATION, priority 2008, published 2011)
Where “and” joins values, the source holds several entries; their conditions need not be identical. Identical values can stand only once. Like-named read-outs stand apart in the source and are kept apart here.

Columns and labels:
[1] = system: rat left atrial appendage; test: 2-APB-induced spontaneous mechanical activity (SMA/SMEs) in isolated superfused rat left atria / left atrial appendage
[2] = system: right ventricular muscle strips and right or left ventricular papillary muscles; test: Ventricular muscle model of SMA and STA; parameters: species or system rat; details: paced at 0.5 Hz, added to the superfusate in appropriate amounts
From the text: To further establish this model as a general test for arrhythmic and anti-arrhythmic agents, right ventricular muscle strips and right or left ventricular papillary muscles were isolated from anesthetized rats as cardiac muscle exemplars using methods known to persons skilled in the art. Additional exemplars could include ventricular or atrial conduction system cells and the SAN itself. These muscles were then superfused as described above and paced at 0.5 Hz.

[3] = system: isolated atrial and ventricular muscle; details: >20 μM 2-APB with an agent that increases myocyte calcium load
Experimental: Specifically, isolated, superfused heart muscle, atrial or ventricular, treated with an appropriate concentration of 2-APB (>20 μM) and with an agent that increases myocyte calcium load was exposed to external pacing that stimulates the muscle at a physiological rate and with strength just sufficient to capture it.

rat right atria = test: Right atrial spontaneous (pacemaker-driven) contraction frequency; details: 30 nM isoproterenol
Experimental: Male Sprague-Dawley rats (325-400 g) were anesthetized with intra-peritoneal pentobarbital (0.1 g/kg). Their right and left atria were isolated, superfused at 30° C. in Krebs-Henseleit buffer, and nearly isometric forces of contraction were measured from these muscles (Wolkowicz et al., 2002). 2-APB was prepared as a 150 mM dimethyl sulfoxide stock.
Left atria (n=9) were paced at 0.1 Hz, treated with 300 nM BayK 8644 for 5 min, then with 20 μM 2-APB for 10 min, and the pacing stimulus was stopped. These preparations then were incubated with six increasing concentrations of zatebradine (10-100 μM) for 3-5 min at each concentration, and rates of SMA were recorded. Untreated right atria (n=9) also were titrated with zatebradine and its effect on contraction frequency was recorded.
To test whether zatebradine affects the SMA occurring in the presence of 2-APB and isoproterenol, left atria (n=7) were paced at 0.1 Hz, treated with 30 nM isoproterenol for 5 min, then with 20 μM 2-APB for 10 min, and the pacing stimulus was stopped. Rates of SMA were recorded, these left atria were exposed to 70 μM zatebradine for 10 min, and rates of SMA were recorded again. A group of right atria (n=7) also were exposed to 30 nM isoproterenol for 5 min and then to 70 μM zatebradine for 10 min. Right atrial contraction frequency was recorded at these two times.
To test whether ZD-7288 (4-Ethylphenyl amino-1,2-dimethyl-6-methylaminopyridinium chloride), an If inhibitor structurally unrelated to zatebradine (Baruscotti et al., 2005; Sanders et al., 2006) affects the SMA occurring in the presence of 2-APB and BayK 8644, rat left atria (n=7) were treated with 300 nM BayK 8644 for 5 min, then with 20 μM 2-APB for 10 min, and the rates of SMA were recorded. These atria then were incubated with six increasing concentrations of ZD-7288 (10-100 μM) for 3-5 min at each concentration, and the rates of SMA were recorded. Right atria (n=7) were titrated similarly with ZD-7288 (0-100 μM) and the change in their contraction frequency was recorded.

[4] = no 2-APB, 30 nM isoproterenol, 3 μM forskolin, 300 nM BayK 8644 or FPL-64176, 120 μM ouabain, 600 nM ryanodine

COC(=O)c1c(C)[nH]c(C)c1C(=O)c1ccccc1Cc1ccccc1 [FPL-64176, 2,5-Dimethyl-4-[2-(phenylmethyl)benzoyl]-111-pyrrole-3-carboxylic acid methyl ester]
ectopic activity (SMEs/SMA/STA) with agent alone [1]: SMA or SMEs do not occur

NCCOB(c1ccccc1)c1ccccc1 [2-APB, 2-aminoethoxydiphenyl borate]
ventricular SMA [2]: ventricular SMA was observed | mechanical activity under physiological-rate pacing [3]: disorganized, fibrillation-like mechanical activity | 2-APB concentration giving intermittent increases in left atrial mechanical force independent of pacing (SMEs) [1]: > 7.5 µM | 2-APB concentration producing sporadic mechanical events in the absence of pacing stimulus [1]: > 10 M | SMEs during rest [1]: numerous SMEs during rest | SMEs giving way to SMA [1]: Repeated SMEs | SMEs in slowly paced preparations [1]: only few SMEs | rate of SMA [1]: 47±6 contractions/min and ~50 contractions/min

C[C@@H]1O[C@@H](O[C@H]2C[C@@H](O)[C@]3(CO)[C@H]4[C@H](O)C[C@]5(C)[C@@H](C6=CC(=O)OC6)CC[C@]5(O)[C@@H]4CC[C@]3(O)C2)[C@H](O)[C@H](O)[C@H]1O [ouabain]
ectopic activity (SMEs/SMA/STA) with agent alone [1, 4]: does not affect their mechanical stability

ryanodine
ectopic activity (SMEs/SMA/STA) with agent alone [1]: SMEs, SMA or STA does not occur

COC(=O)C1=C(C)NC(C)=C([N+](=O)[O-])[C@H]1c1ccccc1C(F)(F)F [BayK 8644, (45)-1,4-Dihydro-2,6-dimethyl-5-nitro-4-[2-(trifluormethyl)phenyl]-3-pyridinecarboxylic acid methyl ester]
ectopic activity (SMEs/SMA/STA) with agent alone [1]: SMA or SMEs do not occur

CC(C)NCC(O)c1ccc(O)c(O)c1 (centres unmarked) [isoproterenol]
right atrial contraction frequency (rat right atria): 276±11.4 contractions/min | ectopic activity (SMEs/SMA/STA) with agent alone [1, 4]: quiescent in the absence of pacing
